Numbers after ± are expanded uncertainties.
Experiment: activity coefficient (dimensionless); of the first substance listed, at infinite dilution; xn = mol fraction of the nth substance listed
Details: 101.33 kPa, Liquid, Chromatography, x1 = 0

Compound	activity coefficient (318.15 K)	activity coefficient (328.15 K)	activity coefficient (338.15 K)	activity coefficient (348.15 K)	activity coefficient (358.15 K)	activity coefficient (368.15 K)	activity coefficient (378.15 K)
C=CCCCCCC [oct-1-ene] + CCCCCCCCCCCC[N+](C)(C)CCOc1ccccc1.O=S(=O)([N-]S(=O)(=O)C(F)(F)F)C(F)(F)F	2.97 ± 0.2	3.06 ± 0.21	3.14 ± 0.21	3.23 ± 0.22	3.32 ± 0.23	3.39 ± 0.23	–
CCCCCCCC [octane] + CCCCCCCCCCCC[N+](C)(C)CCOc1ccccc1.N#C[N-]C#N	–	6.7 ± 0.46	6.8 ± 0.46	6.87 ± 0.47	6.96 ± 0.47	7.07 ± 0.48	7.15 ± 0.49
CCCCCCCC [octane] + CCCCCCCCCCCC[N+](C)(C)CCOc1ccccc1.O=S(=O)([N-]S(=O)(=O)C(F)(F)F)C(F)(F)F	4.05 ± 0.28	4.14 ± 0.28	4.23 ± 0.29	4.32 ± 0.29	4.41 ± 0.3	4.5 ± 0.31	–
CCCCCO [pentan-1-ol] + CCCCCCCCCCCC[N+](C)(C)CCOc1ccccc1.N#C[N-]C#N	–	0.477 ± 0.037	0.491 ± 0.037	0.505 ± 0.038	0.517 ± 0.039	0.53 ± 0.039	0.542 ± 0.04
CCCCCO [pentan-1-ol] + CCCCCCCCCCCC[N+](C)(C)CCOc1ccccc1.O=S(=O)([N-]S(=O)(=O)C(F)(F)F)C(F)(F)F	1.34 ± 0.09	1.31 ± 0.09	1.27 ± 0.08	1.24 ± 0.08	1.22 ± 0.08	1.19 ± 0.08	–
CCCC(C)=O [pentan-2-one] + CCCCCCCCCCCC[N+](C)(C)CCOc1ccccc1.N#C[N-]C#N	–	0.899 ± 0.057	0.936 ± 0.059	0.97 ± 0.061	1 ± 0.06	1.04 ± 0.07	1.07 ± 0.07
CCCC(C)=O [pentan-2-one] + CCCCCCCCCCCC[N+](C)(C)CCOc1ccccc1.O=S(=O)([N-]S(=O)(=O)C(F)(F)F)C(F)(F)F	0.386 ± 0.033	0.41 ± 0.034	0.434 ± 0.035	0.458 ± 0.036	0.481 ± 0.037	0.503 ± 0.038	–
CCC(=O)CC [pentan-3-one] + CCCCCCCCCCCC[N+](C)(C)CCOc1ccccc1.N#C[N-]C#N	–	0.909 ± 0.058	0.947 ± 0.06	0.981 ± 0.062	1.02 ± 0.06	1.05 ± 0.07	1.08 ± 0.07
CCC(=O)CC [pentan-3-one] + CCCCCCCCCCCC[N+](C)(C)CCOc1ccccc1.O=S(=O)([N-]S(=O)(=O)C(F)(F)F)C(F)(F)F	0.387 ± 0.034	0.412 ± 0.034	0.437 ± 0.035	0.462 ± 0.036	0.486 ± 0.037	0.511 ± 0.038	–
CCCO [propan-1-ol] + CCCCCCCCCCCC[N+](C)(C)CCOc1ccccc1.N#C[N-]C#N	–	0.425 ± 0.035	0.435 ± 0.035	0.445 ± 0.036	0.454 ± 0.036	0.463 ± 0.036	0.471 ± 0.037
CCCO [propan-1-ol] + CCCCCCCCCCCC[N+](C)(C)CCOc1ccccc1.O=S(=O)([N-]S(=O)(=O)C(F)(F)F)C(F)(F)F	1.28 ± 0.08	1.24 ± 0.08	1.2 ± 0.08	1.17 ± 0.07	1.14 ± 0.07	1.11 ± 0.07	–
CC(C)O [propan-2-ol] + CCCCCCCCCCCC[N+](C)(C)CCOc1ccccc1.N#C[N-]C#N	–	0.494 ± 0.038	0.504 ± 0.038	0.512 ± 0.038	0.52 ± 0.039	0.528 ± 0.039	0.535 ± 0.039
CC(C)O [propan-2-ol] + CCCCCCCCCCCC[N+](C)(C)CCOc1ccccc1.O=S(=O)([N-]S(=O)(=O)C(F)(F)F)C(F)(F)F	1.27 ± 0.08	1.22 ± 0.08	1.18 ± 0.08	1.14 ± 0.07	1.11 ± 0.07	1.08 ± 0.07	–
CCCc1ccccc1 [propylbenzene] + CCCCCCCCCCCC[N+](C)(C)CCOc1ccccc1.N#C[N-]C#N	–	1.71 ± 0.11	1.77 ± 0.12	1.83 ± 0.12	1.89 ± 0.13	1.96 ± 0.13	2.01 ± 0.14
